Test in all cases: Filter binding assay, GST-CBS domain fusion
One assay has as its target T1, AMPK-γ2 CBS1-4 (WT) (Homo sapiens, UniProt Q9UGJ0).
T1 construct: all four CBS domains (CBS1-4, residues 274-569); made in house; host or cells: E. coli BL21 (DE3)
Conditions: for Kd: two site Hill plot model, read-out: B0.5 (concentration giving half-maximal binding). An excerpt: (§1) The boundaries of the CBS domains were taken from the alignments by Bateman. Using a plasmid encoding human γ2 as the template, PCR was used to produce DNAs encoding all four CBS domains (CBS1-4, residues 274-569), the N-terminal pair (CBS1-2, residues 274-410) or the C-terminal pair (CBS3-4, residues 430-556). The PCR primers had been designed to create BamHI and XhoI sites at the ends, and these were used to insert them into a vector that created a fusion protein with glutathione-S-transferase at the N-terminal end followed by a hexaglycine spacer, with the CBS domains at the C-terminus. All three constructs were expressed in E. coli and could be purified on glutathione-Sepharose as soluble proteins of the expected sizes in good yield (CBS1-4, 61 kDa, 5 mg/L of culture; CBS1-2, 43 kDa, 2 mg/L; CBS3-4, 43 kDa, 2 mg/L).
(§2) With the H383R, T400N and R531G mutants there were large increases in B0.5 (6-, 8- and 10-fold) with no significant change in Hill coefficient.
(§3) Various concentrations of [^14C]-AMP, [γ^32P] […] Reactions were stopped by spotting 10 ìl onto a Millipore MF Filter Membrane disc and rapidly washing under high vacuum with 1 ml of ice-cold TBS. Radioactivity was determined on the filters by scintillation counting. Non-specific binding (which was trivial) was determined by performing the assay with GST as a control, and was subtracted. […] Data were fitted to the binding models given in the text, using GraphPad Prism 3. Estimates of parameters resulting from fits are quoted in the text and Table 1±standard error, and the curves shown in figures are theoretical curves obtained using those estimates.

A further assay has as its target T2, AMPK-γ2 CBS1-2 (R302Q) (Homo sapiens, UniProt Q9UGJ0, R302Q).
T2 construct: the N-terminal pair (CBS1-2, residues 274-410); made in house; host or cells: E. coli BL21 (DE3)
The settings on record: for Kd: single-site model.
From the text: (§4) Site-directed mutagenesis was used to create the point mutation in CBS1 that causes hereditary heart disease (R302Q).
The present inventors also used site-directed mutagenesis to create four of the mutations in CBS1-2 that cause WPWS, i.e. R302Q, H383R and T400N, and Lins (which inserts a leucine residue in the linker between CBS1 and CBS2).
as §3

A further assay addresses T3, AMPK-γ3 CBS1-4 (Homo sapiens, UniProt Q9UGI9).
T3 construct: Human γ3 (residues 197-479) was also used as a template for PCR; made in house; host or cells: E. coli BL21 (DE3)
T3 sequence (Q9UGI9 197-479): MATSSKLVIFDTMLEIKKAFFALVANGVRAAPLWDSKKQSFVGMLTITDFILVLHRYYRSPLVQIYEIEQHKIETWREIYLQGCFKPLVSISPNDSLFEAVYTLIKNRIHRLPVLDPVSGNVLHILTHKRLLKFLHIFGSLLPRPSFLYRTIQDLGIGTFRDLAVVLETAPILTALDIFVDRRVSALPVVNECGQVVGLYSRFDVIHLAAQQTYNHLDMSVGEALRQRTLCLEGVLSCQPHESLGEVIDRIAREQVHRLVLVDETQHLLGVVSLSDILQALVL
Conditions: for Kd: two site Hill plot model, read-out: B0.5.
From the text: DNA fragments were produced encoding all four (CBS1-4), or the first two (CBS1-2), or the last two (CBS3-4) of the tandem CBS domains from the human AMPK γ2 subunit. DNAs were produced by the polymerase chain reaction (PCR) using the Stratagene Pfu Turbo PCR kit and a human γ2-encoding pcDNA3 plasmid as template. The following oligonucleotides were used as primers: (CBS1-4), 5′-CGCGGATCCGCGGTTCCAACCAGTTCAAAGCTTGTT-3′ (sense), 5′-CCGCTCGAGCGGCTCCGTTTCTGTCTCCTTTTGTTT-3′ (antisense); CBS1-2 (sense strand as CBS1-4), 5′-CCGCTCGAGCGGAAGCTGGAGGAACTTGAGGATTCT-3′ (antisense); CBS3-4: 5′-CGCGGATCCGCGATAGGAACGTACCACAACATTGCC-3′ (sense), 5′-CCGCTCGAGCGGGAGGATCAGGGCTTGCAGAATGTC-3′ (antisense). Human γ3 (residues 197-479) was also used as a template for PCR (14). The PCR products were subcloned into pGEX-KG as 5′-BamHI and 3′-XhoI restriction fragments for expression as glutathione-S-Transferase (GST) fusions in E. coli.
as §3

In a further assay the target is T4, AMPK-γ2 CBS1-4 (R531G) (Homo sapiens, UniProt Q9UGJ0, R531G).
T4 construct: all four CBS domains (CBS1-4, residues 274-569); made in house; host or cells: E. coli BL21 (DE3)
T4 sequence (Q9UGJ0 274-569 R531G): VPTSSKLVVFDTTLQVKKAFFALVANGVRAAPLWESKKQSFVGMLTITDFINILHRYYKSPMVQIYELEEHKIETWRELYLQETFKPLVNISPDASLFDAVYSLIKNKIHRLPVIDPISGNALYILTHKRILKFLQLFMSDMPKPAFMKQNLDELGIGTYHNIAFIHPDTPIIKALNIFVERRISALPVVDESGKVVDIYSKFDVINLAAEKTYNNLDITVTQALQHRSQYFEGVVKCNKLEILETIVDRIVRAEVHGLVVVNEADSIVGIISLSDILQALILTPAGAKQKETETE
Conditions: for Kd: two site Hill plot model, read-out: B0.5. As to the method: as §2, §3

For the next assay, the target named is T5, AMPK-γ2 CBS1-4 (Lins) (Homo sapiens, UniProt Q9UGJ0, INS350L).
T5 construct: fused on or other part: GST at the N-terminus followed by a hexaglycine spacer (pGEX-KG)
T5 sequence (Q9UGJ0 with tags, fused parts or gaps INS350L): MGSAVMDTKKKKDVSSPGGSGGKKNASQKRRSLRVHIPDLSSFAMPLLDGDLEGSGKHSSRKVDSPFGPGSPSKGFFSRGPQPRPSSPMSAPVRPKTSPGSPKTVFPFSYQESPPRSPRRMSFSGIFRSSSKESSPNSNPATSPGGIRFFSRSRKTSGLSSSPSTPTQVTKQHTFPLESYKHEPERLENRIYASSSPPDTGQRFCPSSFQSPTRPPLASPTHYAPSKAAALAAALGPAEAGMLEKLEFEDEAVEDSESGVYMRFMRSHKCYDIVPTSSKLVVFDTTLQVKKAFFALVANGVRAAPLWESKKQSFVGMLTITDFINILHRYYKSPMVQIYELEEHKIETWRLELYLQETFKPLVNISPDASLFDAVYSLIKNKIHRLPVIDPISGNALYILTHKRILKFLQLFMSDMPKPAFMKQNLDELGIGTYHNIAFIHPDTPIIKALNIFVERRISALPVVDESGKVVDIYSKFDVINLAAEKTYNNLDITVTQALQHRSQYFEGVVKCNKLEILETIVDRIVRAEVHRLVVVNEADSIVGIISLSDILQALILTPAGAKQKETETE
Conditions: for Kd: two site Hill plot model, read-out: B0.5. As to the method:
as §2, §3

The target in another assay is T6, AMPK-γ2 CBS1-4 (H383R) (Homo sapiens, UniProt Q9UGJ0, H383R).
T6 construct: all four CBS domains (CBS1-4, residues 274-569); made in house; host or cells: E. coli BL21 (DE3)
T6 sequence (Q9UGJ0 274-569 H383R): as the sequence (Q9UGJ0 274-569 R531G) above, with H110R, G258R counted along it
The settings on record: for Kd: two site Hill plot model, read-out: B0.5. The method, then: as §2, §3

The target of another assay is T7, AMPK-γ2 CBS1-4 (T400N) (Homo sapiens, UniProt Q9UGJ0, T400N).
T7 construct: all four CBS domains (CBS1-4, residues 274-569); made in house; host or cells: E. coli BL21 (DE3)
T7 sequence (Q9UGJ0 274-569 T400N): as the sequence (Q9UGJ0 274-569 R531G) above, with T127N, G258R counted along it
Conditions: for Kd: two site Hill plot model, read-out: B0.5. The method, then: as §2, §3

The next assay concerns the target T8, AMPK-γ2 CBS1-4 (R302Q) (Homo sapiens, UniProt Q9UGJ0, R302Q).
T8 construct: all four CBS domains (CBS1-4, residues 274-569); made in house; host or cells: E. coli BL21 (DE3)
Conditions: for Kd: two site Hill plot model, read-out: B0.5. The method, then:
as §2, §3

In another assay the target is T9, AMPK-γ2 CBS3-4 (R531G) (Homo sapiens, UniProt Q9UGJ0, R531G).
T9 construct: the C-terminal pair (CBS3-4, residues 430-556); made in house; host or cells: E. coli BL21 (DE3)
T9 sequence (Q9UGJ0 430-556 R531G): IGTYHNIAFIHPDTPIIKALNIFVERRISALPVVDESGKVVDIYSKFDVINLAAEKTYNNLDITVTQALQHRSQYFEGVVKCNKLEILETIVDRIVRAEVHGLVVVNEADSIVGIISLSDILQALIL
Conditions: for Kd: single-site model. The method, then: Site-directed mutagenesis was also used to create a point mutation in CBS4 that causes hereditary heart disease (WPWS) (R531G).
as §3

The target in the next assay is T10, AMPK-γ2 CBS1-2 (WT) (Homo sapiens, UniProt Q9UGJ0).
T10 construct: the N-terminal pair (CBS1-2, residues 274-410); made in house; host or cells: E. coli BL21 (DE3)
T10 sequence (Q9UGJ0 274-410): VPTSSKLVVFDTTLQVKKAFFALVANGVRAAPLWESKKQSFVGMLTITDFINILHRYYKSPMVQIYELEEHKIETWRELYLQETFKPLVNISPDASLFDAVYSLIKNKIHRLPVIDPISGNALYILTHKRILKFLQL
From the text: as §1, §4, §3

Molecules are shown by their SMILES. Where “and” joins values, the source holds several entries; their conditions need not be identical. Equal entries are not always repeated. Where two headings read alike, the source gives them in different places.

From patent US20050202511A1, “AMP-activated protein kinase (AMPK) inhibitor screening assay” (priority 2002, published 2005) come the findings set out here.

T8 sequence (Q9UGJ0 274-569 R302Q): as the sequence (Q9UGJ0 274-569 R531G) above, with R29Q, G258R counted along it
T1 sequence (Q9UGJ0 274-569): as the sequence (Q9UGJ0 274-569 R531G) above, with G258R counted along it
T2 sequence (Q9UGJ0 274-410 R302Q): as the sequence (Q9UGJ0 274-410) above, with R29Q counted along it

Regarding `Nc1ncnc2c1ncn2[C@@H]1O[C@H](COP(=O)(O)O)[C@@H](O)[C@H]1O` [AMP, adenosine monophosphate], the “h (Hill coefficient)” value at AMPK-γ2 CBS1-4 (WT) came to 2.2 ± 0.1; on AMPK-γ3 CBS1-4, 2.2 ± 0.1; on AMPK-γ2 CBS1-4 (R531G), 1.6 ± 0.2; at AMPK-γ2 CBS1-4 (Lins), 1.8 ± 0.1; at AMPK-γ2 CBS1-4 (H383R) it was 1.8 ± 0.2; at AMPK-γ2 CBS1-4 (T400N) it was 1.8 ± 0.1. At AMPK-γ2 CBS1-4 (R302Q), the “h (Hill coefficient)” value is listed as 1.9 ± 0.2. The Kd turned out to be 61 µM on AMPK-γ2 CBS1-4 (WT); 303 ± 42 µM at AMPK-γ2 CBS1-2 (R302Q); 125 µM on AMPK-γ3 CBS1-4; 2.8 ± 0.22 mM on AMPK-γ2 CBS1-4 (R531G); 130 ± 4 µM at AMPK-γ2 CBS1-4 (Lins); 0.725 ± 0.036 mM at AMPK-γ2 CBS1-4 (H383R). The Kd at AMPK-γ2 CBS1-4 (T400N) was determined as 1.36 ± 0.047 mM; at AMPK-γ2 CBS1-4 (R302Q) it was 158 ± 9 µM; at AMPK-γ2 CBS3-4 (R531G), 1.57 ± 0.11 mM; on AMPK-γ2 CBS1-2 (WT) it was 53 ± 5 µM. Besides, the “increase in Kd relative to wild type” value on AMPK-γ2 CBS1-2 (R302Q) is 5.7 fold and 6 fold; on AMPK-γ2 CBS3-4 (R531G), 15 fold. For the same molecule, the “increase in B0.5 relative to wild type” value at AMPK-γ2 CBS1-4 (R531G) was found to be 46 fold; at AMPK-γ2 CBS1-4 (H383R), 12 fold; on AMPK-γ2 CBS1-4 (T400N), 22 fold. Further, the “change in B0.5 relative to wild type” value at AMPK-γ2 CBS1-4 (R302Q) stood at 2.6 fold. For the same molecule, the “maximal binding (Bmax)” value on AMPK-γ2 CBS1-2 (WT) ([14C]AMP) is 0.95±0.05 moles of AMP per mole of protein.

As to `Nc1ncnc2c1ncn2[C@@H]1O[C@H](COP(=O)(O)OP(=O)(O)OP(=O)(O)O)[C@@H](O)[C@H]1O` [ATP], the “h (Hill coefficient)” value on AMPK-γ2 CBS1-4 (WT) was 2.2 and 2.2 ± 0.2; on AMPK-γ3 CBS1-4 it was 1.5 ± 0.1; on AMPK-γ2 CBS1-4 (R531G), 2.7 ± 0.5; on AMPK-γ2 CBS1-4 (Lins), 1.8 ± 0.2; at AMPK-γ2 CBS1-4 (H383R) it was 2.4 ± 0.2; on AMPK-γ2 CBS1-4 (T400N) it was 1.7 ± 0.2. The “h (Hill coefficient)” value at AMPK-γ2 CBS1-4 (R302Q) is 1.3 and 1.3 ± 0.2. For the same molecule, the Kd came out at 257 ± 14 µM at AMPK-γ2 CBS1-4 (WT); 468 ± 86 µM at AMPK-γ2 CBS1-2 (R302Q); 989 ± 58 µM at AMPK-γ3 CBS1-4; 2.55 ± 0.23 mM on AMPK-γ2 CBS1-4 (R531G); 335 ± 28 µM on AMPK-γ2 CBS1-4 (Lins); 1.47 ± 0.055 mM at AMPK-γ2 CBS1-4 (H383R). Also, the Kd came out at 2 ± 0.16 mM on AMPK-γ2 CBS1-4 (T400N); 193 ± 25 µM on AMPK-γ2 CBS1-4 (R302Q); 2.05 ± 0.15 mM at AMPK-γ2 CBS3-4 (R531G); 175 ± 17 µM at AMPK-γ2 CBS1-2 (WT) (single-site model, 5 mM MgCl2 included for ATP).
